Data reported in the NIST ThermoML archive (doi:10.1016/j.jct.2015.02.017).

Test: mn = molality of the nth substance listed, in mol/kg
Conditions: 298.15 K, 101 kPa, Liquid; for viscosity: Capillary tube (Ostwald / Ubbelohde) method; for mass density: Vibrating tube method

C[n+]1ccn(CCCCCCn2cc[n+](C)c2)c1.[Br-].[Br-] + O
Conditions | mass density [kg/m3] | viscosity [mPa·s]
m1 = 0.0407 | – | 0.917
m1 = 0.0814 | 1006.92 | –
m1 = 0.0989 | – | 0.953
m1 = 0.1 | 1009.1 | –
m1 = 0.1196 | – | 0.966
m1 = 0.1206 | 1011.5 | –
m1 = 0.1403 | 1013.75 | 0.98
m1 = 0.1604 | – | 0.993
m1 = 0.1772 | 1017.94 | –
m1 = 0.2001 | – | 1.02

C[n+]1ccn(CCCCCn2cc[n+](C)c2)c1.[Br-].[Br-] + O
Conditions | mass density [kg/m3] | viscosity [mPa·s]
m1 = 0.05 | 1003.25 | 0.917
m1 = 0.0825 | 1007.17 | –
m1 = 0.0967 | – | 0.943
m1 = 0.1108 | 1010.53 | 0.949
m1 = 0.1389 | – | 0.966
m1 = 0.1522 | 1015.32 | –
m1 = 0.1621 | – | 0.979
m1 = 0.1929 | – | 0.996
m1 = 0.2152 | 1022.44 | –

C[n+]1ccn(CCCCn2cc[n+](C)c2)c1.[Br-].[Br-] + O
Conditions | mass density [kg/m3] | viscosity [mPa·s]
m1 = 0.0993 | 1009.54 | 0.94
m1 = 0.1398 | 1014.42 | 0.958
m1 = 0.1597 | 1016.78 | 0.967
m1 = 0.1794 | – | 0.977
m1 = 0.194 | 1020.81 | 0.984
m1 = 0.2187 | 1023.65 | 0.996
m1 = 0.2485 | 1027.04 | 1.008

O=C[C@H](O)[C@@H](O)[C@H](O)[C@H](O)CO [D-glucose] + O
Conditions | mass density [kg/m3] | viscosity [mPa·s]
m1 = 0.2 | 1010.41 | 0.975
m1 = 0.4 | 1023.12 | 1.068
m1 = 0.8 | 1046.88 | 1.28
m1 = 1.2 | 1068.58 | 1.532
m1 = 1.6 | 1088.48 | 1.83
